Measured values published in patent US9872495B2, “Peptoid oligomers, pharmaceutical compositions and methods of using the same” (priority 2009, dated 2018).
In brackets after ≈: the same amount, converted by molar mass. Square brackets hold non-standard residues; d marks the D form. Peptide text beside a SMILES is read from it. Gly(N(CH2)3NH2) = NCCCNCC(=O)O; N(iPr)Gly = CC(C)NCC(=O)O; Nphe = O=C(O)CNCc1ccccc1; Nleu = CC(C)CNCC(=O)O

Experiments:
[1] = test system: Bacillus subtilis ATCC 6633; type: cell-based; settings: ATCC 6633
[2] = test system: Escherichia coli ATCC 25922; type: cell-based; settings: ATCC 25922
[3] = test system: Staphylococcus aureus ATCC 25923; type: cell-based; settings: ATCC 25923
fresh human erythrocytes = assay: Hemolytic activity; type: cell-based; settings: red cells of human
[4] = test system: MSSA (methicillin-sensitive) and MRSA (methicillin-resistant) S. aureus strains; type: cell-based, Staphylococcus aureus
Description: Experimental Design: • Twelve strains of MSSA (methicillin-sensitive) and MRSA (methicillin-resistant) S. aureus were cross-tested against two antibacterial peptoid oligomers.
[drawing 50] • Testing was accomplished with 96-well plates wherein each well contained LB media, the S. aureus strain, and a solution of the compound in ethanol at a specific concentration. • A twofold serial dilution of each compound was accomplished with pure ethanol starting from 0.5 mg/mL to 0.0039 mg/mL. • To determine the appropriate concentration of the bacterial strain for each well, the previously grown (overnight in LB media) cultures were diluted with LB media until the optical density at 595 nm (OD595˜OD600) was ˜0.005. • Each experiment was conducted in triplicate, e.g. testing of “Newman” S. aureus strain against a specific concentration of C(NapNdp)3 was replicated in three wells. • Control experiments were also conducted in absence of the compound, i.e. the plates contained only the bacterial strain, LB media, and ethanol. • The plates were incubated and gently shaken overnight (20 hours) at 37° C., and OD595 was read before (t=0) and after (t=20) incubation.
Specifically, along a dilution sequence, the well with the least OD595 after subtraction was determined to be the MIC.

MIC B. sub [1]	MIC E. coli [2]	MIC S. aureus [3]	MIC against Staphylococcus aureus strain ([4]; methicillin-sensitive) and (methicillin-resistant) strains)	SMILES	HC10 (concentration where 10% hemolysis is observed) (fresh human erythrocytes)	HC50 (concentration where 50% hemolysis is observed) (fresh human erythrocytes)	activity across strains of Staphylococcus aureus (in words) ([4]; clinical, community-acquired, and hospital strains, methicillin-sensitive and methicillin-resistant)
1 µg/mL (≈ 0.898 µM)	15.6 µg/mL (≈ 14 µM)	15.6 µg/mL (≈ 14 µM)	15.6 µg/mL (≈ 14 µM)	CC(=O)N(CCCN)CC(=O)N(CC(=O)N(CCCN)CC(=O)N(CC(=O)N(CCCN)CC(=O)N(CC(N)=O)CC(c1ccccc1)c1ccccc1)CC(c1ccccc1)c1ccccc1)CC(c1ccccc1)c1ccccc1 [Compound 4, Ac(NapNdp)3]	>62.5 µg/mL	>250 µg/mL	active
>500 µg/mL	>500 µg/mL	>500 µg/mL	–	CC(=O)N(CC(=O)N(CC(=O)N(CCCN)CC(=O)N(CC(=O)N1CCCC1C(=O)N(CC(=O)N(CC(=O)N(CCCN)CC(=O)N(CC(=O)N1CCCC1C(N)=O)C(C)C)CC(C)C)Cc1ccccc1)C(C)C)CC(C)C)Cc1ccccc1 (stereo not drawn) [Compound 13, Ac(NpmNibNapNipPro)2] (Ac-[Nphe][Nleu][Gly(N(CH2)3NH2)][N(iPr)Gly]P[Nphe][Nleu][Gly(N(CH2)3NH2)][N(iPr)Gly]P-NH2; configuration not given here)	>250 µg/mL	>250 µg/mL	–
